US10517806B2, “Antimicrobial foaming compositions containing cationic active ingredients” (ECOLAB USA INC., priority 2014, dated 2019)

Columns and labels:
S. aureus (ATCC # 6538) = assay: Time kill activity (ASTM E 2315), log reduction; format: cell-based; conditions: 30 seconds
Experimental: (§1) In this test, a diluted aliquot of the composition is brought into contact with a known population of test bacteria for a specified time period at a specified temperature. The test composition is neutralized at the end of the time period, which arrests the antimicrobial activity of the composition. The percent or, alternatively, log reduction from the original bacteria population is calculated. In general, the time kill method is known to those skilled in the art. […] The choice of which concentration to use is at the discretion of the investigator, and suitable concentrations are readily determined by those skilled in the art. All testing if performed in triplicate, the results are combined, and the average log reduction is reported. • (c) The choice of contact time period also is at the discretion of the investigator. Any contact time period can be chosen. Typical contact times range from 10 second to 5 minutes, with 30 seconds and 1 minute being typical contact times. The contact temperature also can be any temperature, typically room temperature, or about 25 degrees Celsius. • (d) The microbial suspension, or test inoculum, is prepared by growing a microbial culture on any appropriate solid media (e.g., agar). The microbial population then is washed from the agar with sterile physiological saline and the population of the microbial suspension is adjusted to about 10^8 colony forming units per ml (cfu/ml). • (e) The table below lists the test microbial cultures used in the following tests and includes the name of the bacteria, the ATCC (American Type Culture Collection) identification number, and the abbreviation for the name of the organism used hereafter.
(§2) The log reduction is calculated using the formula: Log reduction=log10(numbers control)−log10(test sample survivors). Foam Height Determination

E. coli (ATCC # 112229) = assay: Time kill activity (ASTM E 2315), log reduction; format: cell-based, Escherichia coli; conditions: 30 seconds
Experimental: as §1, §2

[1] = active at 2% w/w in the composition of formulation example 15, pH 6.25
[2] = active at 4% w/w in the composition of formulation example 15, pH 6.25
[3] = active at 0.65% w/w in the composition of formulation example 15, pH 6.25

N=C(NCCCCCCNC(=N)NC(=N)Nc1ccc(Cl)cc1)NC(=N)Nc1ccc(Cl)cc1.O=C(O)[C@H](O)[C@@H](O)[C@H](O)[C@H](O)CO.O=C(O)[C@H](O)[C@@H](O)[C@H](O)[C@H](O)CO [Chlorohexidine Gluconate]
S. Aureus log reduction (S. aureus (ATCC # 6538); [1]): >5.39
S. Aureus log reduction (S. aureus (ATCC # 6538); [2]): >5.39
E. coli log reduction (E. coli (ATCC # 112229); [1]): >5.73
E. coli log reduction (E. coli (ATCC # 112229); [2]): >5.73

CCCCCCCCCC[N+](C)(C)CCCCCCCCCC.[Cl-] [Didecyl Dimethyl Ammonium Chloride]
S. Aureus log reduction (S. aureus (ATCC # 6538); [3]): >5.39
E. coli log reduction (E. coli (ATCC # 112229); [3]): >5.73

Polyhexamethylene Biguanide
S. Aureus log reduction (S. aureus (ATCC # 6538); [3]): 3.10
E. coli log reduction (E. coli (ATCC # 112229); [3]): >5.73

CC(C)(C)CC(C)(C)c1ccc(OCCOCC[N+](C)(C)Cc2ccccc2)cc1 [Benzethonium Chloride]
S. Aureus log reduction (S. aureus (ATCC # 6538); [3]): >5.39
E. coli log reduction (E. coli (ATCC # 112229); [3]): >5.73
